Reference: publication PMC11144275 (The Lancet. Infectious diseases, 2019)
pEC50: −log10 of the molar value. Counter-ions that a name gives are not always drawn.

Experiments:
EBOV-Ituri = assay: microbe, parasite or virus in culture; assay type: cell-based, Ebola virus
EBOV-Makona = assay: microbe, parasite or virus in culture; assay type: cell-based, Ebola virus

Row | SMILES | EBOV-Ituri Selectivity index (EBOV-Ituri) | EBOV-Makona Selectivity index (EBOV-Makona) | CC50 (Huh-7 cells) | pEC50 (EBOV-Ituri; Zaire ebolavirus, Huh-7, read-out: EC50 EBOV-Ituri) | pEC50 (EBOV-Makona; Zaire ebolavirus, Huh-7, read-out: EC50 EBOV-Makona)
1 | Nc1ccn([C@@H]2O[C@H](CO)[C@@H](O)[C@H]2F)c(=O)n1 [2′-deoxy-2′-fluorocytidine] | >14 | >16 |  |  | 
2 | NCC(=O)Nc1ccc(-n2nc(C(F)(F)F)cc2-c2ccc3c(ccc4ccccc43)c2)cc1 [AR-12] |  |  | 3·67 (0·14) μM |  | 
3 | CCN(CC)CCOc1ccc(C(=C(Cl)c2ccccc2)c2ccccc2)cc1 [Clomifene citrate] |  |  | 8·43 (1·08) μM |  | 
4 | COc1c(C)c2c(c(O)c1C/C=C(\C)CCC(=O)OCCN1CCOCC1)C(=O)OC2 [Mycophenolate mofetil] | 89 | 97 | 14·2 (4·3) μM |  | 
5 | CCC(CC)COC(=O)[C@H](C)N[P@](=O)(OC[C@H]1O[C@@](C#N)(c2ccc3c(N)ncnn23)[C@H](O)[C@@H]1O)Oc1ccccc1 [Remdesivir] |  |  | 3·63 (2·88) μM | 7.89 | 7.92
6 | NC(=O)c1ncn([C@@H]2O[C@H](CO)[C@@H](O)[C@H]2O)n1 [Ribavirin] | >3 | >4 |  |  | 
7 | CC/C(=C(\c1ccccc1)c1ccc(OCCN(C)C)cc1)c1ccccc1 [Tamoxifen] |  |  | 16·29 (12·05) μM |  | 
8 | CN(C)CCOc1ccc(/C(=C(/CCCl)c2ccccc2)c2ccccc2)cc1 [Toremifene citrate] | >625 | >250 |  |  | 
